IC50 data for 1 molecule are collected here from ChEMBL document CHEMBL5729501, “Isoindolines as HDAC inhibitors” (2022).

The experiment addresses T1, Histone deacetylase 11 (Homo sapiens, UniProt Q96DB2).
T1 sequence (Q96DB2 whole entry): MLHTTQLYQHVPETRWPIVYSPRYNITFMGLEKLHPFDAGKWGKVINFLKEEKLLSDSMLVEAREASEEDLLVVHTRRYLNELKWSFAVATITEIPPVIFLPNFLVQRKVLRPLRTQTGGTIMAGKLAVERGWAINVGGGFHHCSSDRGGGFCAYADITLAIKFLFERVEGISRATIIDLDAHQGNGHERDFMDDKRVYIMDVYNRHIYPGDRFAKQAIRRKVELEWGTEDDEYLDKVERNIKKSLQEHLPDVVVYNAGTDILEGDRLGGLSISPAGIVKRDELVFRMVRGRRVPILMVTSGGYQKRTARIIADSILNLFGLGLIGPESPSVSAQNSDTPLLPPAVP
The experiment in a line: In Vitro Histone Deacetylase Assay II: The measurement of HD AC 11 deacetylase activity was performed using an electrophoretic mobility shift assay by Nanosyn (Santa Clara, Calif.). Full length human recombinant HD AC 11 protein was expressed in baculoviral system and purified by affinity chromatography. The enzymatic reactions were assembled in 384 well plates in a total volume of 25 μL in a reaction buffer composing: 100 mM HEPES, pH 7.5, 25 mM KCl, 0.1% bovine serum albumin, 0.01% Triton X-100, 1% DMSO (from compounds), 2 μM of the fluorescently labeled peptide substrate and enzyme. The enzyme was added at a final concentration of 10 nM. The peptide substrate FAM-RHKK(tri-fluor-Ac)—NH2 was used. The compounds were tested at 12 concentrations spaced by 3× dilution intervals. Negative control samples (0%-inhibition in the absence of inhibitor) and positive control samples (100%-inhibition) were assembled in replicates of four in each assay plate. The reactions were incubated at 25° C. and quenched by the addition of 45 μL of termination buffer (100 mM HEPES, pH 7.5, 0.01% Triton X-100, 0.05% SDS).The terminated assay plates were analyzed on LabChip® 3000 microfluidic electrophoresis instrument (Perkin Elmer/Caliper Life Sciences). The fluorescence intensity of the electrophoretically separated de-acetylated product and substrate peptide was measured. […].

In the case of `O=C(NO)c1cccc2c1CN(c1nc3ccccc3[nH]1)C2`, the IC50 is less than 500 nM.

A word on the IC50: it is the point on the concentration scale where inhibition reaches its midpoint.
